This is an account of results in patent US6350907B1, “Matrix metalloprotease inhibitors” (Pfizer Inc, priority 1998, dated 2002).

Assay [1] relates to endothelial cell invasion of basement membrane. The settings on record: thereby inhibiting angiogenesis; cited from earlier work.
A further assay concerns the target T1, MMP-3 (Homo sapiens, UniProt P08254).
T1 construct: Catalytic domain MMP-2, MMP-3 and MMP-9 were prepared at Pfizer Central Research; made in house
As to the kind of experiment: Inhibition of MMP-3, cleavage of fluorogenic peptide. It counts as biochemical. As for the experimental part:
(§1) The ability of compounds to inhibit the cleavage of fluorogenic peptides by MMPs 1, 2, 3, 9 12, 13 and 14 is described below.
(§2) Catalytic domain MMP-2, MMP-3 and MMP-9 were prepared at Pfizer Central Research. […] MMP-3 was activated by the addition of 2 mM APMA, followed by incubation for 3 hours at 37° C. The enzymes were then diluted in Tris-HCl assay buffer (100 mM Tris, 100 mM NaCl, 10 mM CaCl2 and 0.16% Brij 35, pH 7.5), to a concentration of 10 nM. The final concentration of enzyme used in the assays was 1 nM.
The final substrate concentration used in the assay was 5 μM.
(§3) (iii) Determination of Enzyme Inhibition
Test compounds were dissolved in dimethyl sulphoxide and diluted with test buffer solution (as above) so that no more than 1% dimethyl sulphoxide was present. Test compound and enzyme were added to each well of a 96 well plate and allowed to equilibrate for 15 minutes at 37° C. in an orbital shaker prior to the addition of substrate.

In a further assay the target is T2, MMP-2 (Homo sapiens, UniProt P08253).
T2 construct: Catalytic domain MMP-2, MMP-3 and MMP-9 were prepared at Pfizer Central Research; made in house
T2 sequence (P08253 110-446 limits assumed): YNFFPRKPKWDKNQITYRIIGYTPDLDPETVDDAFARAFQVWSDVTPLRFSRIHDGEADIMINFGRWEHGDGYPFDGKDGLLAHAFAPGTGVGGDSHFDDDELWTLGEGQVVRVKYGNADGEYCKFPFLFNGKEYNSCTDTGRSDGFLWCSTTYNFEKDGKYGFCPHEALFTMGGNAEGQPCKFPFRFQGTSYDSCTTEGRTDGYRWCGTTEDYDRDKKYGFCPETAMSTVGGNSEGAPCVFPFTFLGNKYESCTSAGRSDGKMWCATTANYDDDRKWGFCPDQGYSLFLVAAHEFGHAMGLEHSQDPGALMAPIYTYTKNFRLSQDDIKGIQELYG
As to the kind of experiment: Inhibition of MMP-2, cleavage of fluorogenic peptide. It counts as biochemical. To be noted: x = 2; read-out: MMP-2 inhibitor IC50. As for the experimental part:
as §1
(§4) The assays for MMPs 2, 3, 9, and 14 are based upon the original protocol described by Knight et al. (Fed.Euro.Biochem.Soc., 296 (3), 263-266; 1992) with the slight modifications given below.
as §2
(§5) The fluorogenic substrate used in this screen was Mca-Arg-Pro-Lys-Pro-Tyr-Ala-Nva-Trp-Met-Lys(Dnp)-NH2 (Bachem Ltd, Essex, UK) as originally described by Nagase et al (J.Biol.Chem., 269(33), 20952-20957, 1994). […] The final substrate concentration used in the assay was 5 μM. […]
(§6) Test compounds were dissolved in dimethyl sulphoxide and diluted with test buffer solution (as above) so that no more than 1% dimethyl sulphoxide was present. […] Plates were then incubated for 1 hour at 37° C. prior to determination of fluorescence using a fluorimeter (Fluostar; BMG LabTechnologies, Aylesbury, UK) at an excitation wavelength of 328 nm and emission wavelength of 393 nm.

A further assay has as its target T3, MMP-12 (Homo sapiens, UniProt P39900).
T3 construct: Catalytic domain MMP-12 (200 μg/ml) was used
As to the kind of experiment: Inhibition of MMP-12 (Human Macrophage Elastase), cleavage of fluorogenic peptide. It counts as biochemical. To be noted: x = 12; read-out: MMP-12 inhibitor IC50. As for the experimental part: as §1
Inhibition of MMP-12 (Human Macrophage Elastase)
Catalytic domain MMP-12 (200 μg/ml) was used. MMP-12 was diluted in Tris-HCl assay buffer (50 mM Tris, 200 mM NaCl, 5 mM CaCl2, 20 μM ZnSO4, 0.02% Brij 35) pH 7.4 to 240 ng/ml. The final concentration of enzyme used in the assay was 60 ng/ml.
The fluorogenic substrate used in this assay was DNP-Pro-Cha-Gly-Cys(Me)-His-Ala-Lys(NMA)-NH2. The final substrate concentration used in the assay was 10 μM.
as §3
Test compounds were dissolved in dimethyl sulphoxide and diluted with assay buffer so that no more than 1% dimethyl sulphoxide was present. Test compound and enzyme were added to each well of a 96 well plate and allowed to equilibrate for 15 minutes at room temperature in an orbital shaker prior to the addition of substrate. Plates were then incubated for 2 hours at room temperature prior to the determination of fluorescence (substrate cleavage) using a fluorimeter at an excitation wavelength of 360 nm and emission wavelength of 460 nm.

The target in a further assay is T4, MMP-13 (Homo sapiens, UniProt P45452).
T4 construct: purchased PanVera Corporation (Madison, Wis.)
As to the kind of experiment: Inhibition of MMP-13, cleavage of fluorogenic peptide. Format: biochemical. To be noted: x = 13; read-out: MMP-13 inhibitor IC50. As to the method:
as §1
Human recombinant MMP-13 was prepared by PanVera Corporation (Madison, Wis.) and characterized at Pfizer (Groton, Conn.). A 1.9 mg/ml stock was activated with 2 mM APMA for 2 hours at 37° C. MMP-13 was then diluted in assay buffer (50 mM Tris, 200 mM NaCl, 5 mM CaCl2, 20 μM ZnCl2 and 0.02% Brij 35) at pH 7.5 to a concentration of 5.3 nM. The final concentration of enzyme used in the assay was 1.3 nM.
The fluorogenic substrate used in this screen was Dnp-Pro-Cha-Gly-Cys(Me)-His-Ala-Lys(NMA)-NH2. The final substrate concentration used in the assay was 10 μM.
as §3
Test compounds were dissolved in dimethyl sulphoxide and diluted with assay buffer so that no more than 1% dimethyl sulphoxide was present. Test compound and enzyme were added to each well of a 96 well plate. The addition of substrate to each well initiated the reaction. Fluorescence intensity was determined on a 96 well plate fluorometer (Cytofluor II; PerSeptive Biosystems, Inc, Framingham, Mass.) at an excitation wavelength of 360 nm and emission wavelength of 460 nm.

Another assay addresses T5, MMP-14 (Homo sapiens, UniProt P50281).
T5 construct: Catalytic domain MMP-14 was purchased from Prof Tschesche; purchased Prof Tschesche, Department of Biochemistry, Faculty of Chemistry, University of Bielefeld, Germany
Put plainly: Inhibition of MMP-14, cleavage of fluorogenic peptide. The settings on record: x = 14; read-out: MMP-14 inhibitor IC50. Format: biochemical. As for the experimental part:
as §1, §4
Test compounds were dissolved in dimethyl sulphoxide and diluted with test buffer solution (as above) so that no more than 1% dimethyl sulphoxide was present. Test compound and enzyme were added to each well of a 96 well plate and allowed to equilibrate for 15 minutes at 37° C. in an orbital shaker prior to the addition of substrate. Plates were then incubated for 1 hour at 37° C. prior to determination of fluorescence using a fluorimeter (Fluostar; BMG LabTechnologies, Aylesbury, UK) at an excitation wavelength of 328 nm and emission wavelength of 393 nm.
Catalytic domain MMP-14 was purchased from Prof Tschesche, Department of Biochemistry, Faculty of Chemistry, University of Bielefeld, Germany. A 10 μM enzyme stock solution was activated for 20 minutes at 25° C. following the addition of 5 μg/ml of trypsin (Sigma, Dorset, UK). […]

The target of another assay is T6, MMP-9 (Homo sapiens, UniProt P14780).
T6 construct: Catalytic domain MMP-2, MMP-3 and MMP-9 were prepared at Pfizer Central Research; made in house
T6 sequence (P14780 107-444 limits assumed): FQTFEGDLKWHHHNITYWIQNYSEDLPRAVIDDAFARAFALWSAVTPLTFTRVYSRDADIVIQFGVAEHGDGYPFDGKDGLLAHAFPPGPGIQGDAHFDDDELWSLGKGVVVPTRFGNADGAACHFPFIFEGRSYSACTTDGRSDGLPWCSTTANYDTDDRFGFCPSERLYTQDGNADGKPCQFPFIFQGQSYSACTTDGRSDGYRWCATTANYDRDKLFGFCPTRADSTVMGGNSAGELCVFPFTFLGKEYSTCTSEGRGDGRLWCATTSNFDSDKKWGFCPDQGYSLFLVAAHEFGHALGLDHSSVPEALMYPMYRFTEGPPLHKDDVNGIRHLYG
As to the kind of experiment: Inhibition of MMP-9, cleavage of fluorogenic peptide. It counts as biochemical. To be noted: x = 9; read-out: MMP-9 inhibitor IC50. As to the method:
as §1, §4, §2, §5, §6

Another assay concerns keratinocyte migration. To be noted: in vitro; cited from earlier work.

T1 sequence (P08254 100-272 limits assumed): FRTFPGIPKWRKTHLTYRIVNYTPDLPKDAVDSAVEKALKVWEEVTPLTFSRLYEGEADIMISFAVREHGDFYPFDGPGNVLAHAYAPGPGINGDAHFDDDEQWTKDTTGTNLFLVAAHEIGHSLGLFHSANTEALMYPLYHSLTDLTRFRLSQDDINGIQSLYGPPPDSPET
T3 sequence (P39900 106-263 limits assumed): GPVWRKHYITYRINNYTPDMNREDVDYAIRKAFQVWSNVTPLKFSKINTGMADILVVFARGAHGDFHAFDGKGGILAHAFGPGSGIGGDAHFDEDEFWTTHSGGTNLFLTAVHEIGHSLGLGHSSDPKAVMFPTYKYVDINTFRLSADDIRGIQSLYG

Regarding `CNC(=O)[C@H](Cc1ccccc1)NC(=O)[C@H](CC(C)C)[C@H](CSc1cccs1)C(=O)NO` [BB94, (2S,3R)-5-methyl-3-{[(1S)-1-(methylcarbamoyl)-2-phenylethyl]carbamoyl}-2-[(2-thienylthio)methyl]hexanohydroxamic acid], in assay [1], the “Inhibition of endothelial cell invasion of basement membrane” value is recorded as “inhibits endothelial cell invasion of basement membrane”.
As usually defined, the IC50 is the midpoint of a concentration-inhibition curve. For the compound `Cc1cc(CCC[C@H](CC(=O)O)C(=O)N[C@H](C(=O)N[C@H](C)c2ccccc2)C(C)(C)C)ccc1-c1ccccc1` [Example 1, (3R)-3-({[(1S)-2,2-dimethyl-1-({[(1R)-1-phenylethyl]amino}carbonyl)propyl]amino}carbonyl)-6-[(3-methyl-4-phenyl)phenyl]hexanoic acid], at MMP-3, the “3/2sel: Selectivity for MMP-3 over MMP-2” value stood at 107. The IC50 on MMP-3 came out at 101 nM; on MMP-2, 10800 nM; on MMP-12, 85 nM.
As to `C[C@@H](NC(=O)[C@@H](NC(=O)[C@H](CCCc1ccc(-c2ccccc2)c(Cl)c1)CC(=O)NO)C(C)(C)C)c1ccccc1` [Example 2, (2R)-2-{3-[3-Chloro-(4-phenyl)phenyl]propyl}-N1-[(1S)-2,2-dimethyl-1-({[(1R)-1-phenylethyl]amino}carbonyl)propyl]-(N4-hydroxy)butanediamide.], the IC50 at MMP-13 turned out to be 130 nM; at MMP-14, 5650 nM; at MMP-9, 1910 nM.
For the compound `CNC(=O)[C@H](Cc1ccc(OC)cc1)NC(=O)[C@@H](CC(=O)NO)CC(C)C` [SC44463], in the assay on keratinocyte migration, the “Inhibition of keratinocyte migration on a collagen type I matrix” value is “completely inhibited”.
